Converted amounts (≈) assume the structure as drawn.

The subject of this assay is T. vaginalis isolates. Kind of assay: Sensitivity of T. vaginalis isolates to metronidazole (serial dilution MIC by immobilisation; lysis method for amastigote forms). The format is cell-based, Trichomonas vaginalis. The following applies: for MIC: Trichomonas vaginalis. The procedure:
Then, the sensitivity of T. vaginalis to metronidazole was examined in vitro, using as an indicator the immobilisation of the trichomonad by the test-substance. For the sensitivity test, 90% or more of the protozoa were required to be motile. The sensitivity of T. vaginalis isolates to metronidazole was determined using serials dilution and the minimum inhibitory concentration (MIC) method. 4.0 ml of the medium was placed in test tubes and mixed with 0.5 ml of solution various concentrations of metronidazole—from 0.25 to 1000 μg/ml, or 1 mg/ml).
Then, 0.5 ml of pathogenic culture containing a known concentration of T. vaginalis (cells/ml) was added to the test tubes. Media without the test substance was used as a control. Vaseline was added to the surface (0.5 mm layer) of the tubes to create anaerobic conditions necessary for the growth of T.vaginalis. The test tubes were then placed in a thermostat at 37° C. Results were recorded 48 and 96 hours after inoculation.
The sensitivity of trichomonad to metronidazole was determined based on the minimum inhibitory concentration (MIC), which causes immobilisation of all cells of T.vaginalis. The strains were considered as resistant to metronidazole, when immobilisation occurred at concentration of metronidazole exceeding 15 μg/ml.
The MIC method cannot be used when atypical, amastigote (lacking flagella) T. vaginalis are present. Instead, a common in vitro lysis method for determining the sensitivity to antiprotozoal medications was used. Lysis of all trichomonas is an indicator of the efficacy of the test substance. Nutrient media containing trichomonas without metronidazole was used as a control. Metronidazole, at concentrations of 10, 15, 25, and 50 μg/ml was used in this experiment. Strains that lysed at a concentration of 25 μg/ml were considered resistant to metronidazole.

The term MIC denotes the lowest concentration found to suppress growth. As to `Cc1ncc([N+](=O)[O-])n1CCO` [Metronidazole, metronidazole], the MIC was 15 µg/mL (≈ 87.6 µM) (isolate 1 (actively mobile)); 15 µg/mL (≈ 87.6 µM) (isolate 2 (actively mobile)); 25 µg/mL (≈ 146 µM) (isolate 3 (actively mobile)); 50 µg/mL (≈ 292 µM) (isolate 4 (amastigote)); 25 µg/mL (≈ 146 µM) (isolate 5 (amastigote)); 50 µg/mL (≈ 292 µM) (isolate 6 (amastigote)). Moreover, the MIC is, setting by setting: (isolate 7 (amastigote)) 25 µg/mL (≈ 146 µM); (isolate 8 (amastigote)) 25 µg/mL (≈ 146 µM); (isolate 9 (amastigote)) greater than 50 µg/mL; (isolate 10 (amastigote)) 50 µg/mL (≈ 292 µM); (strains 4, 6, 9 and 10) greater than 25 µg/mL. Also, the “number of isolates (out of 10) on which metronidazole had an effect” value (metronidazole 15 μg/ml) was found to be 2. Further, the “resistance of isolates to metronidazole” value (the rest of the isolates (not affected at 15 μg/ml)) is “resistant”.
